Values after ≈ are worked out from the molar mass of the structure shown.

One experiment has as its target T1, Mtb Pks13-TE domain (Mycobacterium tuberculosis, UniProt I6X8D2).
T1 construct: The 283 residue long TE domain starting from residue 1451 in full length Pks13; His6 (TEV-cleavable) (N, cleaved yes); made in house; host or cells: E. coli BL21(DE3)pLysS
T1 sequence (I6X8D2 1451-1733 limits assumed): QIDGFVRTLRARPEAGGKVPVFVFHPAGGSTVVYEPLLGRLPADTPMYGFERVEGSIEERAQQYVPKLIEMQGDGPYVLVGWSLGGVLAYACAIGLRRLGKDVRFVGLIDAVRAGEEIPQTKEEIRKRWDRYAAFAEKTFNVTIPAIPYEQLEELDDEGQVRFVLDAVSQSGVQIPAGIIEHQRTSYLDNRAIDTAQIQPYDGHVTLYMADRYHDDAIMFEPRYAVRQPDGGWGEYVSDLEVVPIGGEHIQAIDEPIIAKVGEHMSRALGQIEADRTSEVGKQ
Description: biochemical. Conditions: mean ± SD of three independent measurements.

The next experiment deals with Mtb mc^27000. Description: microbe, parasite or virus in culture. Conditions: Mtb mc^27000, liquid medium, 96-well plates, […]. The format is cell-based, Mycobacterium tuberculosis.

As a reminder, the IC50 is the concentration that inhibits the measured activity by half. In turn, `CCOC(=O)c1c(-c2ccccc2)oc2ccc(O)c(CN3CCCC(C)C3)c12` (stereo not drawn) [TAM2, ethyl 5-hydroxy-4-[(3-methyl-1-piperidinyl)methyl]-2-phenyl-1-benzofuran-3-carboxylate] had an IC50 against Mtb Pks13-TE domain of 120 ± 20 nM. This compound yielded an MIC in the experiment on Mtb mc^27000 (Mycobacterium tuberculosis) of 4.4 µM (≈ 1.73 µg/mL).

On Mtb Pks13-TE domain, `CCOC(=O)c1c(-c2ccccc2)oc2ccc(O)c(CN3CCCC3)c12.Cl` [TAM3, ethyl 5-hydroxy-2-phenyl-4-(1-pyrrolidinylmethyl)-1-benzofuran-3-carboxylate hydrochloride] returned an IC50 of 240 ± 20 nM. This compound yielded an MIC against Mtb mc^27000 of 4.1 µM.

As for `CCOC(=O)c1c(-c2ccccc2)oc2ccc(O)c(CN3CCCCCC3)c12.Cl` [TAM4, ethyl 4-(1-azepanylmethyl)-5-hydroxy-2-phenyl-1-benzofuran-3-carboxylate hydrochloride], the half-inhibitory concentration (IC50) against Mtb Pks13-TE domain was 280 ± 30 nM. Moreover, the MIC in the experiment on Mtb mc^27000 turned out to be 4.6 µM.

On to `CCOC(=O)c1c(-c2ccccc2)oc2ccc(O)c(CN3CCOCC3)c12` [TAM5, ethyl 5-hydroxy-4-(4-morpholinylmethyl)-2-phenyl-1-benzofuran-3-carboxylate], for which, on Mtb Pks13-TE domain, inhibition was half-maximal at 710 ± 50 nM (IC50). This compound also displayed an MIC in the experiment with Mtb mc^27000 (Mycobacterium tuberculosis) of 13.3 µM (≈ 5.07 µg/mL).

Regarding `CCOC(=O)c1c(-c2ccccc2)oc2ccc(O)c(CN(C)C)c12` [TAM6, ethyl 4-[(dimethylamino)methyl]-5-hydroxy-2-phenyl-1-benzofuran-3-carboxylate], inhibition against Mtb Pks13-TE domain was half-maximal at 1570 ± 150 nM (IC50). The compound further came in with an MIC with Mtb mc^27000 (Mycobacterium tuberculosis) of 7.3 µM (≈ 2.48 µg/mL).

As to `CCOC(=O)c1c(-c2ccccc2)oc2ccc(O)cc12` [TAM7, Ethyl 5-hydroxy-2-phenylbenzofuran-3-carboxylate], on Mtb Pks13-TE domain, the IC50 was found to be 20000 ± 1900 nM. Also, the MIC in the experiment with Mtb mc^27000 (Mycobacterium tuberculosis) stood at 20 µM (≈ 5.65 µg/mL).

In turn, `CCOC(=O)c1c(-c2ccccc2)oc2ccc(O)c(Cc3ccccc3)c12` [TAM8, Ethyl 4-benzyl-5-hydroxy-2-phenylbenzofuran-3-carboxylate] had an IC50 against Mtb Pks13-TE domain of 11900 ± 2300 nM. The MIC in the experiment on Mtb mc^27000 (Mycobacterium tuberculosis) is greater than 40 µM.

`O=C(O)c1c(-c2ccccc2)oc2ccc(O)c(CN3CCCCC3)c12` [TAM10, 5-hydroxy-2-phenyl-4-(piperidin-1-ylmethyl)benzofuran-3-carboxylic acid] had an IC50 against Mtb Pks13-TE domain of 6600 ± 700 nM.

For `CCOC(=O)c1c(-c2ccccc2)oc2ccc(O)c(CC3CCCCC3)c12` [TAM11, Ethyl 4-(cyclohexylmethyl)-5-hydroxy-2-phenylbenzofuran-3-carboxylate], on Mtb Pks13-TE domain, the IC50 came to 19600 ± 1400 nM. The compound also returned an MIC in the experiment on Mtb mc^27000 (Mycobacterium tuberculosis) of 5.2 µM (≈ 1.97 µg/mL).

As to `CCOC(=O)c1c(-c2ccc(O)cc2)oc2ccc(O)c(CN3CCCCC3)c12` [TAM13, Ethyl 5-hydroxy-2-(4-hydroxyphenyl)-4-(piperidin-1-ylmethyl)benzofuran-3-carboxylate], the IC50 on Mtb Pks13-TE domain is 170 ± 20 nM.

The compound `CCOC(=O)c1c(-c2ccccc2)oc2ccc(OC)c(CN3CCCCC3)c12` [TAM14, Ethyl 5-methoxy-2-phenyl-4-(piperidin-1-ylmethyl)benzofuran-3-carboxylate] registered an IC50 against Mtb Pks13-TE domain of 35800 ± 2200 nM.

`CCOC(=O)c1c(-c2ccccc2)oc2cccc(CN3CCCCC3)c12` [TAM15, Ethyl 2-phenyl-4-(piperidin-1-ylmethyl)benzofuran-3-carboxylate] yielded an IC50 against Mtb Pks13-TE domain of 2000 ± 100 nM. For the same compound, the MIC with Mtb mc^27000 (Mycobacterium tuberculosis) came out at 16 µM (≈ 5.82 µg/mL).

Consider `CCOC(=O)c1c(-c2ccc(O)nc2)oc2ccc(O)c(CN3CCCCC3)c12` [TAM17, Ethyl 5-hydroxy-2-(6-hydroxypyridin-3-yl)-4-(piperidin-1-ylmethyl)benzofuran-3-carboxylate], for which, at Mtb Pks13-TE domain, the midpoint of inhibition, the IC50, lay at 360 ± 40 nM. In the experiment with Mtb mc^27000 (Mycobacterium tuberculosis), the MIC was determined as 4 µM (≈ 1.59 µg/mL).

`CNC(=O)c1c(-c2ccc(O)c(F)c2)oc2ccc(O)c(CN3CCCCC3)c12` [TAM18, 2-(3-fluoro-4-hydroxyphenyl)-5-hydroxy-N-methyl-4-(piperidin-1-ylmethyl)benzofuran-3-carboxamide]: at Mtb Pks13-TE domain, the concentration for half-maximal inhibition (IC50) was 330 ± 30 nM. In the experiment on Mtb mc^27000 (Mycobacterium tuberculosis), this compound showed an MIC of 0.5 µM (≈ 0.199 µg/mL).

Consider `CNC(=O)c1c(-c2ccc(O)cc2)oc2cc(O)cc(CN3CCCCC3)c12` [TAM19, 6-hydroxy-2-(4-hydroxyphenyl)-N-methyl-4-(piperidin-1-ylmethyl)benzofuran-3-carboxamide], for which half-maximal inhibition on Mtb Pks13-TE domain (IC50) required 570 ± 30 nM. Besides, the MIC in the experiment with Mtb mc^27000 (Mycobacterium tuberculosis) was 1 µM (≈ 0.38 µg/mL).

The values above are taken from PMC5509550, “Development of a Novel Lead that Targets M. tuberculosis Polyketide Synthase 13” (Cell, 2017).
